{
  "source": "patent US20040198673A1",
  "about": "“Composition for epigallocatechin gallate” (priority 2001, published 2004)",
  "assay": "Agway test of powder flowability (glass funnel, 11-mm opening)",
  "assay_type": "physicochemical",
  "details": "100 g, 11-mm funnel opening",
  "procedure": "Granulated EGCG was compared with EGCG powder (the starting material for granulation) for powder flowability using the Agway test. In that test, flowability is determined by placing 100 gram of the granules in a glass funnel with a 11-mm opening, which is sealed temporarily. The measurement is started by releasing the seal. Flowability is determined as the time for the entire powder to flow through the funnel in seconds per 100 g of granule.",
  "data": [
    {"substance": "(−)-epigallocatechin gallate [EGCG powder]", "values": [
      {"measurement": "Powder flowability (result in words)", "value": "did not flow"}
    ]}
  ]
}
